Assay results reported in PubChem BioAssay AID1963967 (Molecular Pharmacology Branch, DTP, NCI, 2024).

Test system: 855422-203-R-J1-PDC spheroids with HUVEC/MSC, viability
Assay: Anticancer human tumor 855422-203-R-J1-PDC patient-derived bladder carcinoma cell line growth inhibition [PI3K]
Conditions: for IC50: curve of first compound; for viability, T/C: stronger effect = lower value
Source text: Combinatorial screen of targeted agents with the PI3K inhibitors inavolisib, alpelisib, duvelisib, and copanlisib in multi-cell type tumor spheroids
A high-throughput screen of multi-cell type tumor spheroids was designed to identify active combinations of targeted small molecules and PI3K pathway inhibitors. Complex spheroids include a stromal component modeled by human endothelial cells (HUVEC) and fibroblasts modeled by human mesenchymal stem cells (MSCs). The concentration ranges selected for each drug and investigational agent were based upon clinically achievable concentrations if the clinical Cmax of the agent was known.
Compounds. The drugs and investigational agents: inavolisib (NSC800729), alpelisib (NSC765974), duvelisib (NSC772469), copanlisib (NSC816437), ipatasertib (NSC767898), afuresertib (NSC778305), talazoparib (NSC767125), sapanisertib (NSC764658), selumetinib (NSC741078), tovorafenib (DAY101, NSC766906), vemurafenib (NSC761431), ravoxertinib (NSC781343), sotorasib (NSC818433), MRTX1133 (NSC 836407), abemaciclib (NSC 768073), palbociclib (NSC758247), venetoclax (NSC 766270), SY5609 (NSC837396), enzalutamide (NSC755605), and darolutamide (NSC825331), were obtained from the National Cancer Institute (NCI) Developmental Therapeutics Program Chemical Repository. The FDA-approved anticancer drug set is available from the NCI Developmental Therapeutics Program. […] The stock solutions were prepared in dimethyl sulfoxide (DMSO, Sigma-Aldrich, St. Louis, MO, cat. D2650) at 800-fold the tested concentration and stored at -70 degrees C prior to their use. All drugs and investigational agents were tested over a range starting from a high concentration at or near the clinical Cmax and decreasing in half-log increments. If the clinical Cmax for an agent had not been determined, the highest concentration tested was 10 microM.
Cell Culture. All cells were maintained in an incubator at 37 degrees C and 5% CO2 with 95% humidity. The PDC lines were cultured according to standard operating procedures established by the NCI PDMR (https://pdmr.cancer.gov/sops/default.htm). All PDCs were thawed and cultured in Matrigel-coated flasks prepared with a working solution of 1X Ham's F-12 nutrient mix, without supplementation (Invitrogen, Waltham, MA, cat. 11765054), 100 U/mL penicillin-streptomycin (Invitrogen, cat. 15140122), and 2.5% Matrigel (Corning Inc., Corning, NY, cat. 354248) for the first three passages. The 354836-022-R-J1-PDC, 475296-252-R-J1-PDC, and 997726-040-R-J2-PDC lines were cultured in 6A media, which includes advanced DMEM/F-12 (Thermo Fisher Scientific, cat. 12634028), 10 mM HEPES (Thermo Fisher Scientific, cat. 15630080), 1X GlutaMAX supplement (Thermo Fisher Scientific, cat. 35050061), 0.1 mg/mL primocin (InvivoGen, San Diego, CA, cat. ant-pm-2), 10% defined fetal bovine serum, heat inactivated (HyClone Laboratories Inc., Logan, UT, cat. SH30070.03HI), 50% L-WRN conditioned media (ATCC, cat. CRL-3276), 1.25 mM N-Acetyl-L-cysteine (Sigma-Aldrich, cat. A9165), 10 mM nicotinamide (Sigma-Aldrich, cat. N0636), 1X B-27 supplement (Thermo Fisher Scientific, cat. 17504044), 1X N-2 supplement (Thermo Fisher Scientific, cat. 17502048), and 10 microM Y-27632 dihydrochloride (Tocris Bioscience, Bristol, United Kingdom, cat. 1254). The 624824-186-R-J2-PDC line was cultured in 6C/Colon 1B media, which includes all 6A media components plus 50 ng/mL human EGF recombinant protein (Thermo Fisher Scientific, cat. PHG0311). […]
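Further: agents incubated with spheroids for one week before read-out.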
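Wherever viability, T/C is given: 100% = DMSO vehicle-treated control wells.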

## CC(=O)c1c(C)c2cnc(Nc3ccc(N4CCNCC4)cn3)nc2n(C2CCCC2)c1=O + COc1c(OCCCN2CCOCC2)ccc2c3n(c(=NC(=O)c4cnc(N)nc4)nc12)CCN3
Second compound 0.00316 µM
  IC50: > 100 nM
Second compound 0.01 µM
  IC50: > 100 nM
Second compound 0.0316 µM
  IC50: 18.9 nM
Second compound 0.1 µM
  IC50: < 0.316 nM
Second compound 0.316 µM
  IC50: < 0.316 nM
Second compound 1 µM
  IC50: < 0.316 nM
Second compound 0.00316 µM, first compound 0.000316 µM
  viability, T/C: 91.7%
Second compound 0.00316 µM, first compound 0.001 µM
  viability, T/C: 101%
Second compound 0.00316 µM, first compound 0.00316 µM
  viability, T/C: 95.2%
Second compound 0.00316 µM, first compound 0.01 µM
  viability, T/C: 98.3%
Second compound 0.00316 µM, first compound 0.0316 µM
  viability, T/C: 90.5%
Second compound 0.00316 µM, first compound 0.1 µM
  viability, T/C: 73.5%
Second compound 0.01 µM, first compound 0.000316 µM
  viability, T/C: 83.1%
Second compound 0.01 µM, first compound 0.001 µM
  viability, T/C: 88.4%
Second compound 0.01 µM, first compound 0.00316 µM
  viability, T/C: 88.2%
Second compound 0.01 µM, first compound 0.01 µM
  viability, T/C: 84.7%
Second compound 0.01 µM, first compound 0.0316 µM
  viability, T/C: 86.6%
Second compound 0.01 µM, first compound 0.1 µM
  viability, T/C: 56.5%
Second compound 0.0316 µM, first compound 0.000316 µM
  viability, T/C: 67.9%
Second compound 0.0316 µM, first compound 0.001 µM
  viability, T/C: 63.5%
Second compound 0.0316 µM, first compound 0.00316 µM
  viability, T/C: 58.4%
Second compound 0.0316 µM, first compound 0.01 µM
  viability, T/C: 55.2%
Second compound 0.0316 µM, first compound 0.0316 µM
  viability, T/C: 47.6%
Second compound 0.0316 µM, first compound 0.1 µM
  viability, T/C: 26.9%
Second compound 0.1 µM, first compound 0.000316 µM
  viability, T/C: 26.8%
Second compound 0.1 µM, first compound 0.001 µM
  viability, T/C: 27.5%
Second compound 0.1 µM, first compound 0.00316 µM
  viability, T/C: 22.6%
Second compound 0.1 µM, first compound 0.01 µM
  viability, T/C: 25.4%
Second compound 0.1 µM, first compound 0.0316 µM
  viability, T/C: 20%
Second compound 0.1 µM, first compound 0.1 µM
  viability, T/C: 12.1%
Second compound 0.316 µM, first compound 0.000316 µM
  viability, T/C: 10.4%
Second compound 0.316 µM, first compound 0.001 µM
  viability, T/C: 7.97%
Second compound 0.316 µM, first compound 0.00316 µM
  viability, T/C: 9.28%
Second compound 0.316 µM, first compound 0.01 µM
  viability, T/C: 8.98%
Second compound 0.316 µM, first compound 0.0316 µM
  viability, T/C: 6.22%
Second compound 0.316 µM, first compound 0.1 µM
  viability, T/C: 5.08%
Second compound 1 µM, first compound 0.000316 µM
  viability, T/C: 3.62%
Second compound 1 µM, first compound 0.001 µM
  viability, T/C: 4.81%
Second compound 1 µM, first compound 0.00316 µM
  viability, T/C: 3.28%
Second compound 1 µM, first compound 0.01 µM
  viability, T/C: 3.47%
Second compound 1 µM, first compound 0.0316 µM
  viability, T/C: 4.56%
Second compound 1 µM, first compound 0.1 µM
  viability, T/C: 3.64%
